Test results published in paper PMC4865820, “Branched Peptide, B2088, Disrupts the Supramolecular Organization of Lipopolysaccharides and Sensitizes the Gram-negative Bacteria” (Scientific Reports, 2016).
Positions of bridges follow the written chain, without caps; N, C: chain ends. Residues, ends and D or L forms follow the SMILES beside them. Chains are numbered I, II in the order given.

Columns and labels:
[1] = test system: LPS (E. coli serotype 055:B5); experiment: BODIPY TR cadaverine (BC) displacement assay with LPS; format: binding; conditions: no unit in table; ED50 values in μM; 5 mM HEPES pH 7.4; duplicates; read-out: BC50 (LPS binding)
From the text: To investigate the interaction of B2088 with LPS, we performed the BODIPY TR cadaverine (BC) displacement assay reported by Wood et al.[22]. The probe binds to the lipid A part of the LPS with moderate affinity and can be displaced by putative LPS-binding molecules. The method was used to probe the affinity of polycationic molecules and LPS binding proteins. First, we determined the affinity of polymyxin B (PMB), a lipopeptide cyclic antibiotic which has a high affinity for LPS. […] Figure 1a,b show the concentration-dependent displacement of LPS/lipid A-bound BC upon addition of B2088. […] To confirm the importance of branching, we determined the BC50 for a linear retrodimer having the amino acid sequence, […] (Fig. 1d). The determined value was 2-fold higher (3.9 ± 0.1 μM) than that of B2088, confirming a weaker affinity of the linear peptide.
The BC displacement assay was used to determine the ability of each peptide to bind to LPS. The florescent probe, BODIPY TR cadaverine (BC) was purchased from Molecular Probes/ Invitrogen (USA). A stock solution containing 1 mg/ml of LPS (E. coli serotype 055:B5) was prepared in dimethyl sulfoxide (DMSO) and another stock solution containing 1 mg/ml of BC dye was prepared in 5 mM HEPES buffer (pH 7.4). The optimum saturation concentration of BC:LPS ratio was standardized following the protocol provided by Wood et al. (22). From the BC stock, 240 μl was mixed with 500 μl from the LPS stock solution in 5 mM HEPES buffer (pH 7.4) to prepare 20 ml of BC:LPS mixture. Two-fold serial dilutions of each peptide in 5 mM HEPES buffer (pH 7.4) was prepared from their 1 mg/ml stock solutions to obtain a final range of 0.02–25.6 μM. The BC:LPS mixture was added to 100 μl of each peptide congener in a 1:1 ratio in each well of a 96-well black Costar™ polystyrene microtitre plate (Corning Incorporated, NY, USA). The maximum fluorescence intensity (Fmax) was determined using a mixture containing 100 μl PMB (50 μg/ml) and 100 μl BC:LPS solution, as PMB is considered the ‘gold standard’ for LPS-sequestering agents. The minimum fluorescence intensity (F0) was measured using 200 μl of BC:LPS mixture to determine the background noise for this experiment. Fluorescence measurements for each peptide (F) were determined using a microplate reader (Model: TECAN Infinite 200, Austria) with excitation and emission wavelengths set at 580 nm and 620 nm respectively. The percentage of BC displacement was then calculated using the formula: […]
The experiments were performed in duplicates and the effective concentration required for 50% displacement of BC dye (ED50) from LPS with respect to PMB was determined by curve fitting using Graphpad Prism (CA, USA). A higher ED50 value for the peptide indicates a lower affinity for LPS.

P. aeruginosa ATCC 27853 [2] = experiment: microbe, parasite or virus in culture; format: cell-based; conditions: ATCC 27853, 24 h
Experimental: (§1) MIC of each peptide was determined using the microdilution method in a 96 well microtitre plates (SPL Life Sciences Co., Ltd, Korea). Two-fold serial dilutions of each peptide in Mueller-Hinton Broth (MHB) was prepared from a 1 mg/ml stock solution of the peptide in the same broth, to obtain a final concentration in the range of 0.0976–50 μg/ml in each well. Bacterial suspensions (P. aeruginosa ATCC 27853, P. aeruginosa 4877, P. aeruginosa 23155, K. pneumoniae ATCC 10031 and K. pneumoniae 4299) were prepared by suspending the overnight cultured bacteria in saline and adjusting the inoculum to ~10^8 colony forming units (CFU) per ml. A further 150-fold dilution was then prepared in MHB to achieve a final cell density of 10^5–10^6 CFU/ml. In each well, 100 μl of inoculum was mixed with the equal volume of peptides at their 2× concentration. Positive and negative controls contained 200 μl of inoculum (without any peptide) and broth alone (no peptide/inoculum) respectively. Another negative control in which MHB containing 200 μl of peptide alone in its highest concentration tested (50 μg/ml) was also included to ensure that the optical density measured in the test wells was not due to turbidity of the peptides in solution. The 96 well polystyrene plates were then incubated at 37 °C for 24 h and the optical density at 600 nm (OD600) was measured every 30 min continuously using a TECAN microplate reader (TECAN Infinite 200, Austria). All the experiments were performed in two independent duplicates and the MIC was determined as the lowest peptide concentration in which no visible growth was observed.

K. pneumoniae ATCC10031 = format: cell-based; conditions: ATCC10031, 24 h
Experimental: as §1

P. aeruginosa 23155 = format: cell-based; conditions: 23155, 24 h
Experimental: as §1

K. pneumonia 4299 = experiment: microbe, parasite or virus in culture; format: cell-based, K. pneumoniae; conditions: 24 h
Experimental: as §1

P. aeruginosa ATCC 27853 [3] = format: cell-based; conditions: ATCC 27853; for Fractional inhibitory concentration of peptide/PMB, combination with Genta: first number in parenthesis; for Fractional inhibitory concentration of antibiotic, Genta combination: second number in parenthesis
Experimental: (§2) The synergism between peptides with conventional antibiotics was evaluated using checkerboard assays. For a comparison polymyxin B (PMB) was also tested against each antibiotic. From their stock solutions, two-fold dilutions of each antibiotic and peptide to 1× MIC were prepared in MHB. 50 μl of each peptide concentration was added into the wells of a 96-well polystyrene plates (SPL Life Sciences Co. Ltd, Korea) in a horizontal orientation and the same volume of each antibiotic concentration were then added in a vertical orientation. Bacterial suspensions were prepared in MHB to yield final cell density of ~10^6 CFU/ml and 100 μl of bacterial suspension was mixed with each peptide-antibiotic combinations. This procedure was repeated for wells containing 200 μl of peptide alone and 200 μl of antibiotic alone in various concentrations. The positive and negative controls contained 200 μl of inoculum and MHB alone respectively. The plates were incubated at 37 °C for 24 hours and the optical density at 600 nm (OD600) was monitored as before. Fractional inhibitory concentration index (FICI) for all antibiotic- peptide combinations was calculated through the summation of (MIC of peptide in the combination/ MIC of peptide alone) and (MIC of antibiotics in combination/MIC of antibiotic alone). The experiments were performed in two independent duplicates and the combinations that gave the lowest FICI values was reported.

P. aeruginosa DR4877/07 = format: cell-based; conditions: for Fractional inhibitory concentration of peptide/PMB, combination with Chloarm / Fractional inhibitory concentration of peptide/PMB, combination with Erythro / Fractional inhibitory concentration of peptide/PMB, combination with Levo / Fractional inhibitory concentration of peptide/PMB, combination with Tobra: first number in parenthesis; for Fractional inhibitory concentration of antibiotic, Chloarm combination / Fractional inhibitory concentration of antibiotic, Erythro combination / Fractional inhibitory concentration of antibiotic, Levo combination / Fractional inhibitory concentration of antibiotic, Tobra combination: second number in parenthesis
Experimental: as §2

P. aeruginosa ATCC 9027 = experiment: Outer membrane permeability assay (NPN); format: cell-based; conditions: no unit in table; Fig. S5 axis [Peptide], μM; 10 μM NPN, 5 mM HEPES pH 7.4, ex 355/em 405 nm; average of two titrations; read-out: PC50 (peptide concentration for half-maximal NPN intensity, OM permeability)
Experimental: The ability of each peptide to permeabilize the OM of Gram-negative organisms was determined using the hydrophobic fluorescent probe 1-N-phenylnaphthylamine (NPN) as previously reported. P. aeruginosa ATCC 9027 cells from an overnight MHB culture were harvested after centrifuging at 3000 rpm for 10 minutes. The pellet was washed twice, suspended in 5 mM HEPES (N- 2-hydroxyethylpiperazine-N’-2 ethanesulfonic acid) buffer (pH 7.4) and adjusted to an OD600 of 0.200. A suspension containing 600 μl of bacteria cells and 1 μl of a concentrated stock solution of NPN was mixed into a 10 mm stirred quartz cuvette so that the final concentration of the probe remained 10 μM. Aliquots containing 1 μl of each peptide in various concentrations (100, 50, 25, 15, 10, 5, 2.5 and 1 μg/ml) were added upon NPN dye stabilization. The fluorescence intensity was monitored using a Quanta Master spectrophotometer with a constant slit width of 0.5 nm, excitation and emission wavelengths set at 355 nm and 405 nm respectively. The peptide concentration required for half-maximal intensity (PC50) was determined by sigmoidal curve fitting using Graphpad Prism software. The experimental data is average of two independent titration experiments.

Structure (SMILES)	EC50 [1] [µM]	Minimum Inhibitory Concentration against P. aeruginosa ATCC 27853 (P. aeruginosa ATCC 27853 [2]) [µM]	Minimum Inhibitory Concentration against K. pneumoniae ATCC10031 (K. pneumoniae ATCC10031) [µM]	Minimum Inhibitory Concentration against P. aeruginosa 23155 (P. aeruginosa 23155) [µM]	Minimum Inhibitory Concentration against K. pneumonia 4299 (K. pneumonia 4299) [µM]	Fractional inhibitory concentration of peptide/PMB, combination with Genta (P. aeruginosa ATCC 27853 [3])	Fractional inhibitory concentration of antibiotic, Genta combination (P. aeruginosa ATCC 27853 [3])	Fractional inhibitory concentration of peptide/PMB, combination with Chloarm (P. aeruginosa DR4877/07)	Fractional inhibitory concentration of peptide/PMB, combination with Erythro (P. aeruginosa DR4877/07)	Fractional inhibitory concentration of peptide/PMB, combination with Levo (P. aeruginosa DR4877/07)	Fractional inhibitory concentration of peptide/PMB, combination with Tobra (P. aeruginosa DR4877/07)	Fractional inhibitory concentration of antibiotic, Chloarm combination (P. aeruginosa DR4877/07)	Fractional inhibitory concentration of antibiotic, Erythro combination (P. aeruginosa DR4877/07)	Fractional inhibitory concentration of antibiotic, Levo combination (P. aeruginosa DR4877/07)	Fractional inhibitory concentration of antibiotic, Tobra combination (P. aeruginosa DR4877/07)	EC50 (P. aeruginosa ATCC 9027) [µM]
CC(C)C[C@H](NC(=O)[C@H](CCCCN)NC(=O)[C@H](CCCNC(=N)N)NC(=O)CNC(=O)[C@@H](N)CCCNC(=N)N)C(=O)N[C@@H](CC(C)C)C(=O)N[C@@H](CCCNC(=N)N)C(=O)N[C@@H](CCCNC(=N)N)C(=O)NCCCC[C@H](NC(=O)[C@H](CCCNC(=N)N)NC(=O)[C@H](CCCNC(=N)N)NC(=O)[C@H](CC(C)C)NC(=O)[C@H](CC(C)C)NC(=O)[C@H](CCCCN)NC(=O)[C@H](CCCNC(=N)N)NC(=O)CNC(=O)[C@@H](N)CCCNC(=N)N)C(=O)N[C@@H](CCCCN)C(=O)O (I: H-RGRKLLRRKK-OH / II: H-RGRKLLRR; amide I:9-II:C; N-terminus and C-terminus assumed)	1.47 ± 0.02	2.7	5.3	2.7	5.3	(0.25,0.25)	(0.25,0.25)	0.25	(0.5,0.5)	0.5	(0.25,0.25)	0.13	(0.5,0.5)	0.06	(0.25,0.25)	17.5 ± 0.4
N=C(N)NCCC[C@H](NC(=O)CNC(=O)[C@@H](N)CCCNC(=N)N)C(=O)N[C@@H](CCCCN)C(=O)N[C@@H](Cc1c[nH]c2ccccc12)C(=O)N[C@@H](Cc1c[nH]c2ccccc12)C(=O)N[C@@H](CCCNC(=N)N)C(=O)N[C@@H](CCCNC(=N)N)C(=O)NCCCC[C@H](NC(=O)[C@H](CCCNC(=N)N)NC(=O)[C@H](CCCNC(=N)N)NC(=O)[C@H](Cc1c[nH]c2ccccc12)NC(=O)[C@H](Cc1c[nH]c2ccccc12)NC(=O)[C@H](CCCCN)NC(=O)[C@H](CCCNC(=N)N)NC(=O)CNC(=O)[C@@H](N)CCCNC(=N)N)C(=O)N[C@@H](CCCCN)C(=O)O (I: H-RGRKWWRRKK-OH / II: H-RGRKWWRR; amide I:9-II:C; N-terminus and C-terminus assumed)	6.8 ± 0.12	9.5	9.5	9.5	19	0.5	0.06	0.5	(0.5,0.5)	0.5	0.5	0.13	(0.5,0.5)	0.25	0.25	31.1 ± 4.6
N=C(N)NCCC[C@H](NC(=O)CNC(=O)[C@@H](N)CCCNC(=N)N)C(=O)N[C@@H](CCCCN)C(=O)N[C@@H](Cc1ccc(O)cc1)C(=O)N[C@@H](Cc1ccc(O)cc1)C(=O)N[C@@H](CCCNC(=N)N)C(=O)N[C@@H](CCCNC(=N)N)C(=O)NCCCC[C@H](NC(=O)[C@H](CCCNC(=N)N)NC(=O)[C@H](CCCNC(=N)N)NC(=O)[C@H](Cc1ccc(O)cc1)NC(=O)[C@H](Cc1ccc(O)cc1)NC(=O)[C@H](CCCCN)NC(=O)[C@H](CCCNC(=N)N)NC(=O)CNC(=O)[C@@H](N)CCCNC(=N)N)C(=O)N[C@@H](CCCCN)C(=O)O (I: H-RGRKYYRRKK-OH / II: H-RGRKYYRR; amide I:9-II:C; N-terminus and C-terminus assumed)	2.5 ± 0.04	4.5	4.5	4.5	9.0	(0.25,0.25)	(0.25,0.25)	0.25	0.5	0.5	0.25	0.13	0.06	0.25	0.13	21.9 ± 0.2
